Data on 17 substances can be found in patent publication US12385042B2, “Cell-penetrating peptides” (VECTIOPEP OÜ, priority 2019, dated 2025).

The subject of this assay is U87 MG-luc2 human glioma cells, stably expressing luc2. The assay can be described thus: Luciferase gene downregulation by CPP/siRNA (siLuc2) complexes. Type of assay: cell-based. The following applies: CPP/siRNA complexes, siRNA against luciferase. The protocol: For assessing the siRNA mediated RNAi, CHO-GFP or U87-luc2 cells (5×10^5 cells per well) were seeded on a 24-well plate a day prior to the experiment and grown in serum containing media. On experiment day, prior to adding pre-formed complexes ( 1/10th of the final volume per well), media was replaced with fresh serum containing medium.
For complex formation, peptide was mixed with luc2 siRNA (sense 5′-[…]-3′ (SEQ ID NO:7), antisense 5′-[…] 3′ (SEQ ID NO:8), Metabion, Germany) or with siRNA against GFP (5′-[…] (SEQ ID NO:9), 3′-[…] (SEQ ID NO:10)) in mQ water (pH 5.3-6.3) using peptide to siRNA molar ratios (MR is the ratio of peptide to siRNA) […] and incubated at RT for 1 h. For siLuc2, the final concentration in media was 25 nM and for siGFP 100 nM. Cells were co-incubated with complexes for 4 h (37° C., 5% CO2), thereafter fresh serum containing media was added and followed by further incubation (20 h for siLuc2 or 44 h for siGFP complexes). Luciferase gene downregulation was measured from cell lysates with Promega luciferase assay system (Promega, Sweden) in combination with GLOMAX 96 microplate luminometer equipped with GLOMAX 1.9.2 software (Promega). GFP was measured after treatment from cell lysates on black 96-well plates by measuring total fluorescence (Symergy MX, BioTek Instruments, USA equipped with Gen5 1.10 software). The results were normalized to the protein content of each sample (DC Protein Assay, BioRad, USA).
Luciferase activity was determined as described in previous paragraph.
For determination of pH dependency on the transfection efficiency, complexes were formed at MR30, incubated and diluted before addition to cells to obtain siRNA final concentration 10 nM in transfection media. HEPES buffer supplemented with 10% FBS was used as transfection media. Complexes were co-incubated with cells for 4 h and then media was replaced with cell growth media. After further 20 h incubation cells were lysed and analyzed as described previously.
The experiment was carried out in serum containing media (10% FBS). CPP/siRNA complexes were formed at different molar ratios with siRNA concentration kept constant (50 nM in transfection media). Luminescence from luciferin-luciferase reaction was measured at 24 hours post-treatment from cell lysate. Results were normalized to protein content and luminescence values from untreated cells (100%).
For “HHHHHHGO^eILLKALKALAKAIL [NF706, C22 fatty acid on N-terminus; C-terminally amidated]”, the “Red (%) (reduction, based on remaining luminescence on U87 cells post-treatment)” value worked out at 59%. Regarding “HHHHHHYHHGO^eILLKALKALAKAIL [NF721, group H8; C18 saturated fatty acid on N-terminus; C-terminally amidated]”, the “Red (%) (reduction, based on remaining luminescence on U87 cells post-treatment)” value came to 55%.

As for “HHHHHHYHHGO^eILLKALKALAKAIL [NF722, group H8; C22 saturated fatty acid on N-terminus; C-terminally amidated]”, the “Red (%) (reduction, based on remaining luminescence on U87 cells post-treatment)” value is reported as 45%. The value for “HHHHHHYLLGO^eILLKALKALAKAIL [NF707, group H6^2 (histidines before tyrosine); C18 fatty acid on N-terminus; C-terminally amidated]” was 70%. The value for “HHHHHHYLLGO^eILLKALKALAKAIL [NF708, group H6^2 (histidines before tyrosine); C20 fatty acid on N-terminus; C-terminally amidated]” was 71%; that for “HHHHHHYLLGO^eILLKALKALAKAIL [NF709, group H6^2 (histidines before tyrosine); C22 fatty acid on N-terminus; C-terminally amidated]” was 55%. “HHHHHYHHGO^eILLKALKALAKAIL [NF719, group H7; C18 saturated fatty acid on N-terminus; C-terminally amidated]”: the “Red (%) (reduction, based on remaining luminescence on U87 cells post-treatment)” value is given as 39%. As to “HHHHHYHHGO^eILLKALKALAKAIL [NF723, group H7; C20 saturated fatty acid on N-terminus; C-terminally amidated]”, the “Red (%) (reduction, based on remaining luminescence on U87 cells post-treatment)” value came out at 49%. Regarding “HHHHHYHHGO^eILLKALKALAKAIL [NF724, group H7; C22 saturated fatty acid on N-terminus; C-terminally amidated]”, the “Red (%) (reduction, based on remaining luminescence on U87 cells post-treatment)” value is 40%.

Regarding “HHHHYHHGO^eILLKALKALAKAIL [NF701, group H6; C10 (decanoyl) fatty acid on N-terminus; C-terminally amidated]”, the “Red (%) (reduction, based on remaining luminescence on U87 cells post-treatment)” value worked out at 20%. For “HHHHYHHGO^eILLKALKALAKAIL [NF711, group H6; C16 saturated fatty acid on N-terminus; C-terminally amidated]” the value was 35%. The value for “HHHYHHGO^eILLKALKALAKAIL [NF715, group H5; C18 saturated fatty acid on N-terminus; C-terminally amidated]” was 62%; that for “HHHYHHGO^eILLKALKALAKAIL [NF718, group H5; C22 saturated fatty acid on N-terminus; C-terminally amidated]” was 75%. The value for “HHYHHGO^eILLKALKALAKAIL [NF712, group H4; C20 saturated fatty acid on N-terminus; C-terminally amidated]” was 83%; that for “HHYHHGO^eILLKALKALAKAIL [NF713, group H4; C22 saturated fatty acid on N-terminus; C-terminally amidated]” was 47%. As to “HHYHHGO^eILLKALKALAKAIL [NF717, group H4; C16 saturated fatty acid on N-terminus; C-terminally amidated]”, the “Red (%) (reduction, based on remaining luminescence on U87 cells post-treatment)” value came to 43%. For “HYHHGO^eILLKALKALAKAIL [NF726, group H3; C20 saturated fatty acid on N-terminus; C-terminally amidated]” the value was 50%.
